Test results: PubChem BioAssay (NCI)
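Step 1: Grow cells in 96-well plates. Step 2: Expose to compound for 48 hours at 5 concentrations. Step 3: Interpolate endpoints linearly; if unreached, use highest concentration. GI50: concentration for 50% inhibition of growth. TGI: total growth inhibition.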

Key:
Assay in all cases: inhibition of tumour cell growth, NCI panel, 48 h
K-562 leukemia = system: K-562 leukemia
SR leukemia = system: SR leukemia
TK-10 renal = system: TK-10 renal
PC-3 prostate = system: PC-3 prostate
LOX IMVI melanoma = system: LOX IMVI melanoma
OVCAR-5 ovarian = system: OVCAR-5 ovarian
RXF 393 renal = system: RXF 393 renal
COLO 205 colon = system: COLO 205 colon
HOP-62 NSCLC = system: HOP-62 NSCLC
DU-145 prostate = system: DU-145 prostate
MDA-MB-435 = system: MDA-MB-435
NCI-H23 lung = system: NCI-H23 lung
SF-268 CNS = system: SF-268 CNS
HCT-116 colon = system: HCT-116 colon
SK-MEL-5 melanoma = system: SK-MEL-5 melanoma
OVCAR-4 ovarian = system: OVCAR-4 ovarian
SN12C renal = system: SN12C renal
NCI-H522 lung = system: NCI-H522 lung
HS 578T breast = system: HS 578T breast
SNB-75 CNS = system: SNB-75 CNS
SF-539 CNS = system: SF-539 CNS
MCF7 breast = system: MCF7 breast
RPMI-8226 leukemia = system: RPMI-8226 leukemia
UACC-62 melanoma = system: UACC-62 melanoma
NCI-H226 lung = system: NCI-H226 lung
HCC-2998 colon = system: HCC-2998 colon
HCT-15 colon = system: HCT-15 colon
OVCAR-8 ovarian = system: OVCAR-8 ovarian
A549 NSCLC = system: A549 NSCLC
M14 melanoma = system: M14 melanoma
U251 CNS = system: U251 CNS
SW-620 colon = system: SW-620 colon
SK-MEL-2 melanoma = system: SK-MEL-2 melanoma
HOP-92 NSCLC = system: HOP-92 NSCLC
HL-60(TB) leukemia = system: HL-60(TB) leukemia
A498 renal = system: A498 renal
ACHN renal = system: ACHN renal
UACC-257 melanoma = system: UACC-257 melanoma
IGROV1 ovarian = system: IGROV1 ovarian
MDA-MB-231 breast = system: MDA-MB-231 breast
SK-MEL-28 melanoma = system: SK-MEL-28 melanoma
UO-31 renal = system: UO-31 renal
NCI/ADR-RES ovarian = system: NCI/ADR-RES ovarian
SK-OV-3 ovarian = system: SK-OV-3 ovarian
NCI-H460 lung = system: NCI-H460 lung
CAKI-1 renal = system: CAKI-1 renal
SNB-19 CNS = system: SNB-19 CNS
BT-549 breast = system: BT-549 breast
T-47D breast = system: T-47D breast
HT29 colon = system: HT29 colon
KM12 colon = system: KM12 colon
SF-295 CNS = system: SF-295 CNS
OVCAR-3 ovarian = system: OVCAR-3 ovarian
CCRF-CEM leukemia = system: CCRF-CEM leukemia
786-0 renal = system: 786-0 renal
MOLT-4 leukemia = system: MOLT-4 leukemia
MALME-3M melanoma = system: MALME-3M melanoma
EKVX NSCLC = system: EKVX NSCLC

`Nc1nc2c(c3cnccc13)C(c1cccc(Br)c1)Cc1cnccc1-2` (stereo unspecified) was tested, and the GI50 (K-562 leukemia) was 346 nM, the TGI (K-562 leukemia) was 17400 nM and the GI50 (SR leukemia) was 243 nM. For the same compound, the TGI (SR leukemia) was > 100000 nM, the GI50 (TK-10 renal) was 613 nM and the TGI (TK-10 renal) was 13600 nM. It also gave a GI50 (PC-3 prostate) of 460 nM, a TGI (PC-3 prostate) of 14000 nM and a GI50 (LOX IMVI melanoma) of 427 nM. It also gave a TGI (LOX IMVI melanoma) of 13700 nM, a GI50 (OVCAR-5 ovarian) of 875 nM and a TGI (OVCAR-5 ovarian) of 21800 nM. The GI50 (RXF 393 renal) was 288 nM, the TGI (RXF 393 renal) was 953 nM and the GI50 (COLO 205 colon) was 273 nM. For the same compound, the TGI (COLO 205 colon) was 1070 nM, the GI50 (HOP-62 NSCLC) was 465 nM and the TGI (HOP-62 NSCLC) was 18900 nM. For the same compound, the GI50 (DU-145 prostate) was 344 nM, the TGI (DU-145 prostate) was 11300 nM and the GI50 (MDA-MB-435) was 154 nM. For the same compound, the TGI (MDA-MB-435) was 571 nM, the GI50 (NCI-H23 lung) was 635 nM and the TGI (NCI-H23 lung) was 14100 nM. The GI50 (SF-268 CNS) was 852 nM, the TGI (SF-268 CNS) was 18300 nM and the GI50 (HCT-116 colon) was 442 nM. For the same compound, the TGI (HCT-116 colon) was 11400 nM, the GI50 (SK-MEL-5 melanoma) was 475 nM and the TGI (SK-MEL-5 melanoma) was 3450 nM. For the same compound, the GI50 (OVCAR-4 ovarian) was 1730 nM, the TGI (OVCAR-4 ovarian) was 34100 nM and the GI50 (SN12C renal) was 877 nM. It also gave a TGI (SN12C renal) of 22900 nM, a GI50 (NCI-H522 lung) of 214 nM and a TGI (NCI-H522 lung) of 620 nM. The GI50 (HS 578T breast) was 423 nM, the TGI (HS 578T breast) was 29200 nM and the GI50 (SNB-75 CNS) was 243 nM. It also gave a TGI (SNB-75 CNS) of 12700 nM, a GI50 (SF-539 CNS) of 235 nM and a TGI (SF-539 CNS) of 821 nM. For the same compound, the GI50 (MCF7 breast) was 324 nM, the TGI (MCF7 breast) was 12200 nM and the GI50 (RPMI-8226 leukemia) was 392 nM. It also gave a TGI (RPMI-8226 leukemia) of 12300 nM, a GI50 (UACC-62 melanoma) of 406 nM and a TGI (UACC-62 melanoma) of 14200 nM. For the same compound, the GI50 (NCI-H226 lung) was 949 nM, the TGI (NCI-H226 lung) was 18900 nM and the GI50 (HCC-2998 colon) was 3620 nM. It also gave a TGI (HCC-2998 colon) of 18800 nM, a GI50 (HCT-15 colon) of 362 nM and a TGI (HCT-15 colon) of 10500 nM. The GI50 (OVCAR-8 ovarian) was 780 nM, the TGI (OVCAR-8 ovarian) was 44600 nM and the GI50 (A549 NSCLC) was 627 nM. For the same compound, the TGI (A549 NSCLC) was 13600 nM, the GI50 (M14 melanoma) was 215 nM and the TGI (M14 melanoma) was 615 nM. It also gave a GI50 (U251 CNS) of 342 nM, a TGI (U251 CNS) of 2970 nM and a GI50 (SW-620 colon) of 420 nM. For the same compound, the TGI (SW-620 colon) was 17400 nM, the GI50 (SK-MEL-2 melanoma) was 303 nM and the TGI (SK-MEL-2 melanoma) was 1910 nM. It also gave a GI50 (HOP-92 NSCLC) of 639 nM, a TGI (HOP-92 NSCLC) of 16700 nM and a GI50 (HL-60(TB) leukemia) of 329 nM. The TGI (HL-60(TB) leukemia) was 961 nM, the GI50 (A498 renal) was 233 nM and the TGI (A498 renal) was 824 nM. For the same compound, the GI50 (ACHN renal) was 1100 nM, the TGI (ACHN renal) was 12500 nM and the GI50 (UACC-257 melanoma) was 12100 nM. It also gave a TGI (UACC-257 melanoma) of 27000 nM, a GI50 (IGROV1 ovarian) of 850 nM and a TGI (IGROV1 ovarian) of 17800 nM. For the same compound, the GI50 (MDA-MB-231 breast) was 1110 nM, the TGI (MDA-MB-231 breast) was 15700 nM and the GI50 (SK-MEL-28 melanoma) was 3810 nM. It also gave a TGI (SK-MEL-28 melanoma) of 20300 nM, a GI50 (UO-31 renal) of 1200 nM and a TGI (UO-31 renal) of 15500 nM. For the same compound, the GI50 (NCI/ADR-RES ovarian) was 323 nM, the TGI (NCI/ADR-RES ovarian) was 10200 nM and the GI50 (SK-OV-3 ovarian) was 586 nM. For the same compound, the TGI (SK-OV-3 ovarian) was 17100 nM, the GI50 (NCI-H460 lung) was 370 nM and the TGI (NCI-H460 lung) was 11500 nM. The GI50 (CAKI-1 renal) was 422 nM, the TGI (CAKI-1 renal) was 14400 nM and the GI50 (SNB-19 CNS) was 410 nM. It also gave a TGI (SNB-19 CNS) of 15200 nM, a GI50 (BT-549 breast) of 526 nM and a TGI (BT-549 breast) of 5480 nM. It also gave a GI50 (T-47D breast) of 411 nM, a TGI (T-47D breast) of 40400 nM and a GI50 (HT29 colon) of 341 nM. The TGI (HT29 colon) was 1790 nM, the GI50 (KM12 colon) was 436 nM and the TGI (KM12 colon) was 13600 nM. For the same compound, the GI50 (SF-295 CNS) was 271 nM, the TGI (SF-295 CNS) was 1950 nM and the GI50 (OVCAR-3 ovarian) was 339 nM. For the same compound, the TGI (OVCAR-3 ovarian) was 14100 nM, the GI50 (CCRF-CEM leukemia) was 373 nM and the TGI (CCRF-CEM leukemia) was 14100 nM. It also gave a GI50 (786-0 renal) of 482 nM, a TGI (786-0 renal) of 12600 nM and a GI50 (MOLT-4 leukemia) of 418 nM. For the same compound, the TGI (MOLT-4 leukemia) was 12100 nM, the GI50 (MALME-3M melanoma) was 515 nM and the TGI (MALME-3M melanoma) was 18700 nM. It also gave a GI50 (EKVX NSCLC) of 487 nM and a TGI (EKVX NSCLC) of 21500 nM.
